Measurements: PubChem BioAssay AID256 (DTP/NCI, 2004)
Toxic doses and inconclusive results are not listed.

System: CD2F1 mice, L1210 leukemia ip, survival T/C
Assay: NCI In Vivo Anticancer Drug Screen. Data for tumor model L1210 Leukemia (intraperitoneal) in CD2F1 (CDF1) mice
Conditions: endpoint: mean survival time, higher = longer survival
Outline: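 Vehicle-treated tumor-bearing mice served as controls (C) for compound-treated mice (T). Reported figure is T divided by C.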

## CCOC(=O)c1c(O)c(=O)[nH]c2ccccc12
dose: 100.0 mg/kg/injection, schedule: Q01DX005 (ip), vehicle: saline with Tween-80
  T/C: 106 % of control
dose: 200.0 mg/kg/injection, schedule: Q01DX005 (ip), vehicle: saline with Tween-80
  T/C: 97 % of control
dose: 400.0 mg/kg/injection, schedule: Q01DX005 (ip), vehicle: saline with Tween-80
  T/C: 97 % of control

## Nc1ncnc2c1ccn2C1OC2COP(=O)(O)OC2C1O (centres undefined)
dose: 5.0 mg/kg/injection, schedule: Q01DX001 (ip), vehicle: saline
  T/C: 98 % of control
dose: 10.0 mg/kg/injection, schedule: Q01DX001 (ip), vehicle: saline
  T/C: 102 % of control
dose: 20.0 mg/kg/injection, schedule: Q01DX001 (ip), vehicle: saline
  T/C: 114 % of control
dose: 40.0 mg/kg/injection, schedule: Q01DX001 (ip), vehicle: saline
  T/C: 117 % of control

## CCOC(=O)Nc1cc2c(c(N)n1)N=C(CCc1ccccc1)CN2
dose: 25.0 mg/kg/injection, schedule: Q01DX001 (ip), vehicle: Klucel (hydroxypropylcellulose) (HPC)
  T/C: 107 % of control
dose: 50.0 mg/kg/injection, schedule: Q01DX001 (ip), vehicle: Klucel (hydroxypropylcellulose) (HPC)
  T/C: 114 % of control
dose: 200.0 mg/kg/injection, schedule: Q01DX001 (ip), vehicle: Klucel (hydroxypropylcellulose) (HPC)
  T/C: 116 % of control

## O=C(O)CNC(=O)C(CSC(c1ccccc1)(c1ccccc1)c1ccccc1)NC(c1ccccc1)(c1ccccc1)c1ccccc1 (centres undefined)
dose: 75.0 mg/kg/injection, schedule: Q01DX001 (ip), vehicle: saline
  T/C: 97 % of control

## CS(=O)(=O)OC1CCCSc2ccccc21 (centres undefined)
dose: 100.0 mg/kg/injection, schedule: Q01DX001 (ip), vehicle: carboxymethylcellulose (CMC)
  T/C: 103 % of control
dose: 200.0 mg/kg/injection, schedule: Q01DX001 (ip), vehicle: carboxymethylcellulose (CMC)
  T/C: 97 % of control
dose: 400.0 mg/kg/injection, schedule: Q01DX001 (ip), vehicle: carboxymethylcellulose (CMC)
  T/C: 97 % of control
